Converted amounts (≈) assume the structure as drawn.
What follows are molecules tested on Staphylococcus aureus (assay: Antibacterial activity against methicillin-resistant Staphylococcus aureus ATCC 43300 assessed as inhibition of visible bacterial growth incubated for 24 hrs by CLSI based broth microdilution method).
Format: functional
With C=C[C@]1(C)C[C@@H](OC(=O)CSc2nc(OC(=O)c3ccccc3F)cs2)[C@]2(C)[C@H](C)CC[C@]3(CCC(=O)[C@H]32)[C@@H](C)[C@@H]1O the MIC was 0.5 µg/mL (≈ 0.812 µM).
Work on C=C[C@]1(C)C[C@@H](OC(=O)CSc2nc(OC(=O)CC(C)C)cs2)[C@]2(C)[C@H](C)CC[C@]3(CCC(=O)[C@H]32)[C@@H](C)[C@@H]1O yielded an MIC of 0.5 µg/mL (≈ 0.865 µM).
C=C[C@]1(C)C[C@@H](OC(=O)CSc2nc(OC(=O)CCCCCCC)cs2)[C@]2(C)[C@H](C)CC[C@]3(CCC(=O)[C@H]32)[C@@H](C)[C@@H]1O gave an MIC of 2 µg/mL (≈ 3.23 µM).
C=C[C@]1(C)C[C@@H](OC(=O)CSc2nc(OC(=O)C3CC3)cs2)[C@]2(C)[C@H](C)CC[C@]3(CCC(=O)[C@H]32)[C@@H](C)[C@@H]1O gave an MIC of 0.5 µg/mL (≈ 0.89 µM).
For C=C[C@]1(C)C[C@@H](OC(=O)CSc2nc(OC(=O)C(C)(C)CC)cs2)[C@]2(C)[C@H](C)CC[C@]3(CCC(=O)[C@H]32)[C@@H](C)[C@@H]1O, the MIC was 0.5 µg/mL (≈ 0.845 µM).
Work on C=C[C@]1(C)C[C@@H](OC(=O)CSc2nc(OC(=O)C(CC)CCCC)cs2)[C@]2(C)[C@H](C)CC[C@]3(CCC(=O)[C@H]32)[C@@H](C)[C@@H]1O (stereo partly specified) yielded an MIC of 0.5 µg/mL (≈ 0.807 µM).

The molecules below were run on Staphylococcus aureus (assay: Antibacterial activity against Staphylococcus aureus ATCC 25923 assessed as inhibition of visible bacterial growth incubated for 24 hrs by CLSI based broth microdilution method).
Format: functional
C=C[C@]1(C)C[C@@H](OC(=O)CSc2nc(OC(=O)c3ccccc3F)cs2)[C@]2(C)[C@H](C)CC[C@]3(CCC(=O)[C@H]32)[C@@H](C)[C@@H]1O gave an MIC of 0.5 µg/mL (≈ 0.812 µM).
Molecule C=C[C@]1(C)C[C@@H](OC(=O)CSc2nc(OC(=O)CC(C)C)cs2)[C@]2(C)[C@H](C)CC[C@]3(CCC(=O)[C@H]32)[C@@H](C)[C@@H]1O has an MIC of 1 µg/mL (≈ 1.73 µM).
Work on C=C[C@]1(C)C[C@@H](OC(=O)CSc2nc(OC(=O)CCCCCCC)cs2)[C@]2(C)[C@H](C)CC[C@]3(CCC(=O)[C@H]32)[C@@H](C)[C@@H]1O yielded an MIC of 2 µg/mL (≈ 3.23 µM).
In the case of C=C[C@]1(C)C[C@@H](OC(=O)CSc2nc(OC(=O)C3CC3)cs2)[C@]2(C)[C@H](C)CC[C@]3(CCC(=O)[C@H]32)[C@@H](C)[C@@H]1O, the MIC is reported as 1 µg/mL (≈ 1.78 µM).
C=C[C@]1(C)C[C@@H](OC(=O)CSc2nc(OC(=O)C(C)(C)CC)cs2)[C@]2(C)[C@H](C)CC[C@]3(CCC(=O)[C@H]32)[C@@H](C)[C@@H]1O gave an MIC of 0.25 µg/mL (≈ 0.422 µM).
C=C[C@]1(C)C[C@@H](OC(=O)CSc2nc(OC(=O)C(CC)CCCC)cs2)[C@]2(C)[C@H](C)CC[C@]3(CCC(=O)[C@H]32)[C@@H](C)[C@@H]1O (stereo partly specified) showed an MIC of 2 µg/mL (≈ 3.23 µM).

The molecules below were run on Enterococcus faecalis (assay: Antibacterial activity against Enterococcus faecalis assessed as inhibition of visible bacterial growth incubated for 24 hrs by CLSI based broth microdilution method).
Format: functional
C=C[C@]1(C)C[C@@H](OC(=O)CSc2nc(OC(=O)c3ccccc3F)cs2)[C@]2(C)[C@H](C)CC[C@]3(CCC(=O)[C@H]32)[C@@H](C)[C@@H]1O gave an MIC of over 32 µg/mL.
In the case of C=C[C@]1(C)C[C@@H](OC(=O)CSc2nc(OC(=O)CC(C)C)cs2)[C@]2(C)[C@H](C)CC[C@]3(CCC(=O)[C@H]32)[C@@H](C)[C@@H]1O, the MIC is reported as over 32 µg/mL.
Work on C=C[C@]1(C)C[C@@H](OC(=O)CSc2nc(OC(=O)CCCCCCC)cs2)[C@]2(C)[C@H](C)CC[C@]3(CCC(=O)[C@H]32)[C@@H](C)[C@@H]1O yielded an MIC of over 32 µg/mL.
Molecule C=C[C@]1(C)C[C@@H](OC(=O)CSc2nc(OC(=O)C3CC3)cs2)[C@]2(C)[C@H](C)CC[C@]3(CCC(=O)[C@H]32)[C@@H](C)[C@@H]1O has an MIC of over 32 µg/mL.
With C=C[C@]1(C)C[C@@H](OC(=O)CSc2nc(OC(=O)C(C)(C)CC)cs2)[C@]2(C)[C@H](C)CC[C@]3(CCC(=O)[C@H]32)[C@@H](C)[C@@H]1O the MIC was over 32 µg/mL.
Work on C=C[C@]1(C)C[C@@H](OC(=O)CSc2nc(OC(=O)C(CC)CCCC)cs2)[C@]2(C)[C@H](C)CC[C@]3(CCC(=O)[C@H]32)[C@@H](C)[C@@H]1O (stereo partly specified) yielded an MIC of over 32 µg/mL.

What follows are molecules tested on Escherichia coli (assay: Antibacterial activity against Escherichia coli ATCC 25922 assessed as inhibition of visible bacterial growth incubated for 24 hrs by CLSI based broth microdilution method).
Format: functional
C=C[C@]1(C)C[C@@H](OC(=O)CSc2nc(OC(=O)c3ccccc3F)cs2)[C@]2(C)[C@H](C)CC[C@]3(CCC(=O)[C@H]32)[C@@H](C)[C@@H]1O showed an MIC of over 32 µg/mL.
For C=C[C@]1(C)C[C@@H](OC(=O)CSc2nc(OC(=O)CC(C)C)cs2)[C@]2(C)[C@H](C)CC[C@]3(CCC(=O)[C@H]32)[C@@H](C)[C@@H]1O, the MIC was over 32 µg/mL.
Molecule C=C[C@]1(C)C[C@@H](OC(=O)CSc2nc(OC(=O)CCCCCCC)cs2)[C@]2(C)[C@H](C)CC[C@]3(CCC(=O)[C@H]32)[C@@H](C)[C@@H]1O has an MIC of over 32 µg/mL.
C=C[C@]1(C)C[C@@H](OC(=O)CSc2nc(OC(=O)C3CC3)cs2)[C@]2(C)[C@H](C)CC[C@]3(CCC(=O)[C@H]32)[C@@H](C)[C@@H]1O gave an MIC of over 32 µg/mL.
C=C[C@]1(C)C[C@@H](OC(=O)CSc2nc(OC(=O)C(C)(C)CC)cs2)[C@]2(C)[C@H](C)CC[C@]3(CCC(=O)[C@H]32)[C@@H](C)[C@@H]1O gave an MIC of over 32 µg/mL.
With C=C[C@]1(C)C[C@@H](OC(=O)CSc2nc(OC(=O)C(CC)CCCC)cs2)[C@]2(C)[C@H](C)CC[C@]3(CCC(=O)[C@H]32)[C@@H](C)[C@@H]1O (stereo partly specified) the MIC was over 32 µg/mL.

Each molecule was assayed on Streptococcus agalactiae (assay: Antibacterial activity against Streptococcus agalactiae assessed as inhibition of visible bacterial growth incubated for 24 hrs by CLSI based broth microdilution method).
Format: functional
With C=C[C@]1(C)C[C@@H](OC(=O)CSc2nc(OC(=O)c3ccccc3F)cs2)[C@]2(C)[C@H](C)CC[C@]3(CCC(=O)[C@H]32)[C@@H](C)[C@@H]1O the MIC was 0.125 µg/mL (≈ 0.203 µM).
Molecule C=C[C@]1(C)C[C@@H](OC(=O)CSc2nc(OC(=O)CC(C)C)cs2)[C@]2(C)[C@H](C)CC[C@]3(CCC(=O)[C@H]32)[C@@H](C)[C@@H]1O has an MIC of 0.125 µg/mL (≈ 0.216 µM).
C=C[C@]1(C)C[C@@H](OC(=O)CSc2nc(OC(=O)CCCCCCC)cs2)[C@]2(C)[C@H](C)CC[C@]3(CCC(=O)[C@H]32)[C@@H](C)[C@@H]1O showed an MIC of 0.125 µg/mL (≈ 0.202 µM).
With C=C[C@]1(C)C[C@@H](OC(=O)CSc2nc(OC(=O)C3CC3)cs2)[C@]2(C)[C@H](C)CC[C@]3(CCC(=O)[C@H]32)[C@@H](C)[C@@H]1O the MIC was 0.063 µg/mL (≈ 0.112 µM).
Work on C=C[C@]1(C)C[C@@H](OC(=O)CSc2nc(OC(=O)C(C)(C)CC)cs2)[C@]2(C)[C@H](C)CC[C@]3(CCC(=O)[C@H]32)[C@@H](C)[C@@H]1O yielded an MIC of 0.063 µg/mL (≈ 0.106 µM).
For C=C[C@]1(C)C[C@@H](OC(=O)CSc2nc(OC(=O)C(CC)CCCC)cs2)[C@]2(C)[C@H](C)CC[C@]3(CCC(=O)[C@H]32)[C@@H](C)[C@@H]1O (stereo partly specified), the MIC was 0.25 µg/mL (≈ 0.403 µM).

What follows are molecules tested on Mycoplasma (assay: Antibacterial activity against Mycoplasma F3 assessed as inhibition of visible bacterial growth incubated for 24 hrs by CLSI based broth microdilution method).
Format: functional
C=C[C@]1(C)C[C@@H](OC(=O)CSc2nc(OC(=O)c3ccccc3F)cs2)[C@]2(C)[C@H](C)CC[C@]3(CCC(=O)[C@H]32)[C@@H](C)[C@@H]1O was tested, and the MIC was 0.25 µg/mL (≈ 0.406 µM).
C=C[C@]1(C)C[C@@H](OC(=O)CSc2nc(OC(=O)CC(C)C)cs2)[C@]2(C)[C@H](C)CC[C@]3(CCC(=O)[C@H]32)[C@@H](C)[C@@H]1O was tested, and the MIC was 0.125 µg/mL (≈ 0.216 µM).
With C=C[C@]1(C)C[C@@H](OC(=O)CSc2nc(OC(=O)CCCCCCC)cs2)[C@]2(C)[C@H](C)CC[C@]3(CCC(=O)[C@H]32)[C@@H](C)[C@@H]1O the MIC was 0.5 µg/mL (≈ 0.807 µM).
C=C[C@]1(C)C[C@@H](OC(=O)CSc2nc(OC(=O)C3CC3)cs2)[C@]2(C)[C@H](C)CC[C@]3(CCC(=O)[C@H]32)[C@@H](C)[C@@H]1O gave an MIC of 0.25 µg/mL (≈ 0.445 µM).
For C=C[C@]1(C)C[C@@H](OC(=O)CSc2nc(OC(=O)C(C)(C)CC)cs2)[C@]2(C)[C@H](C)CC[C@]3(CCC(=O)[C@H]32)[C@@H](C)[C@@H]1O, the MIC was 0.125 µg/mL (≈ 0.211 µM).
C=C[C@]1(C)C[C@@H](OC(=O)CSc2nc(OC(=O)C(CC)CCCC)cs2)[C@]2(C)[C@H](C)CC[C@]3(CCC(=O)[C@H]32)[C@@H](C)[C@@H]1O (stereo partly specified) showed an MIC of 0.5 µg/mL (≈ 0.807 µM).
